Assay results taken from PubChem BioAssay (NCI).
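Results reflect a 48-hour exposure of cells in 96-well plates to compound at five concentrations. TGI is the concentration that stops growth completely.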

Tests used:
Assay in all cases: growth of human tumour cells (NCI), 48 h
[1] = test system: 786-0 renal
[2] = test system: A549 NSCLC
[3] = test system: ACHN renal
[4] = test system: BT-549 breast
[5] = test system: CAKI-1 renal
[6] = test system: CCRF-CEM leukemia
[7] = test system: COLO 205 colon
[8] = test system: DU-145 prostate
[9] = test system: EKVX NSCLC
[10] = test system: HCT-116 colon
[11] = test system: HCT-15 colon
[12] = test system: HL-60(TB) leukemia
[13] = test system: HOP-62 NSCLC
[14] = test system: HOP-92 NSCLC
[15] = test system: HS 578T breast
[16] = test system: HT29 colon
[17] = test system: IGROV1 ovarian
[18] = test system: K-562 leukemia
[19] = test system: KM12 colon
[20] = test system: LOX IMVI melanoma
[21] = test system: M14 melanoma
[22] = test system: MALME-3M melanoma
[23] = test system: MCF7 breast
[24] = test system: MDA-MB-231 breast
[25] = test system: MDA-MB-435
[26] = test system: MDA-N
[27] = test system: MOLT-4 leukemia
[28] = test system: NCI-H226 lung
[29] = test system: NCI-H23 lung
[30] = test system: NCI-H460 lung
[31] = test system: NCI-H522 lung
[32] = test system: NCI/ADR-RES ovarian
[33] = test system: OVCAR-3 ovarian
[34] = test system: OVCAR-4 ovarian
[35] = test system: OVCAR-5 ovarian
[36] = test system: OVCAR-8 ovarian
[37] = test system: PC-3 prostate
[38] = test system: RPMI-8226 leukemia
[39] = test system: RXF 393 renal
[40] = test system: SF-268 CNS
[41] = test system: SF-295 CNS
[42] = test system: SF-539 CNS
[43] = test system: SK-MEL-2 melanoma
[44] = test system: SK-MEL-5 melanoma
[45] = test system: SK-OV-3 ovarian
[46] = test system: SN12C renal
[47] = test system: SNB-19 CNS
[48] = test system: SNB-75 CNS
[49] = test system: SR leukemia
[50] = test system: SW-620 colon
[51] = test system: T-47D breast
[52] = test system: TK-10 renal
[53] = test system: U251 CNS
[54] = test system: UACC-257 melanoma
[55] = test system: UACC-62 melanoma
[56] = test system: UO-31 renal
[57] = test system: HCC-2998 colon
[58] = test system: SK-MEL-28 melanoma

Cc1ccc(O)c(Cc2nc3ccccc3nc2-c2cccc(Br)c2)c1
TGI [1]: > 100 µM
TGI [2]: > 100 µM
TGI [3]: > 100 µM
TGI [4]: > 100 µM
TGI [5]: > 100 µM
TGI [6]: > 100 µM
TGI [7]: > 100 µM
TGI [8]: > 100 µM
TGI [9]: > 100 µM
TGI [10]: > 100 µM
TGI [11]: 66.9 µM
TGI [12]: > 100 µM
TGI [13]: > 100 µM
TGI [14]: > 100 µM
TGI [15]: 66.8 µM
TGI [16]: > 100 µM
TGI [17]: > 100 µM
TGI [18]: > 100 µM
TGI [19]: > 100 µM
TGI [20]: > 100 µM
TGI [21]: > 100 µM
TGI [22]: > 100 µM
TGI [23]: > 100 µM
TGI [24]: > 100 µM
TGI [25]: > 100 µM
TGI [26]: > 100 µM
TGI [27]: 84.7 µM
TGI [28]: > 100 µM
TGI [29]: > 100 µM
TGI [30]: > 100 µM
TGI [31]: > 100 µM
TGI [32]: > 100 µM
TGI [33]: > 100 µM
TGI [34]: > 100 µM
TGI [35]: > 100 µM
TGI [36]: > 100 µM
TGI [37]: > 100 µM
TGI [38]: > 100 µM
TGI [39]: > 100 µM
TGI [40]: > 100 µM
TGI [41]: > 100 µM
TGI [42]: > 100 µM
TGI [43]: > 100 µM
TGI [44]: > 100 µM
TGI [45]: > 100 µM
TGI [46]: > 100 µM
TGI [47]: 69.7 µM
TGI [48]: > 100 µM
TGI [49]: > 100 µM
TGI [50]: > 100 µM
TGI [51]: > 100 µM
TGI [52]: > 100 µM
TGI [53]: > 100 µM
TGI [54]: > 100 µM
TGI [55]: > 100 µM
TGI [56]: > 100 µM

CC(/C=N/NC1=NCCCCN1)=N\NC1=NCCCCN1
TGI [1]: > 100 µM
TGI [2]: > 100 µM
TGI [3]: > 100 µM
TGI [4]: > 100 µM
TGI [5]: > 100 µM
TGI [6]: > 100 µM
TGI [7]: 57 µM
TGI [9]: > 100 µM
TGI [57]: > 100 µM
TGI [10]: > 100 µM
TGI [11]: > 100 µM
TGI [13]: > 100 µM
TGI [14]: > 100 µM
TGI [15]: > 100 µM
TGI [16]: > 100 µM
TGI [17]: > 100 µM
TGI [18]: > 100 µM
TGI [19]: > 100 µM
TGI [20]: > 100 µM
TGI [21]: 38.7 µM
TGI [22]: 84 µM
TGI [23]: > 100 µM
TGI [24]: > 100 µM
TGI [25]: > 100 µM
TGI [26]: > 100 µM
TGI [27]: > 100 µM
TGI [28]: > 100 µM
TGI [29]: > 100 µM
TGI [30]: > 100 µM
TGI [31]: > 100 µM
TGI [32]: > 100 µM
TGI [33]: > 100 µM
TGI [34]: > 100 µM
TGI [35]: > 100 µM
TGI [36]: > 100 µM
TGI [37]: > 100 µM
TGI [38]: > 100 µM
TGI [39]: > 100 µM
TGI [40]: > 100 µM
TGI [41]: > 100 µM
TGI [42]: > 100 µM
TGI [58]: > 100 µM
TGI [44]: > 100 µM
TGI [45]: > 100 µM
TGI [46]: > 100 µM
TGI [47]: > 100 µM
TGI [48]: > 100 µM
TGI [49]: > 100 µM
TGI [50]: > 100 µM
TGI [51]: > 100 µM
TGI [52]: > 100 µM
TGI [53]: > 100 µM
TGI [54]: > 100 µM
TGI [55]: > 100 µM
TGI [56]: > 100 µM
